This assay addresses Cyclic GMP-AMP synthase (Homo sapiens, UniProt Q8N884). Nature of the assay: Inhibition of recombinant His6-SUMO tagged human CGAS expressed in Escherichia coli BL21/pLys cells incubated for 20 mins by Kinase Glo chemiluminescence assay.

A value given as a limit tells only on which side of the number the result lay.

This note sets out measurements from ChEMBL document CHEMBL4418308, “cGAS ANTAGONIST COMPOUNDS” (2017).

Cyclic GMP-AMP synthase, sequence (Q8N884 whole entry): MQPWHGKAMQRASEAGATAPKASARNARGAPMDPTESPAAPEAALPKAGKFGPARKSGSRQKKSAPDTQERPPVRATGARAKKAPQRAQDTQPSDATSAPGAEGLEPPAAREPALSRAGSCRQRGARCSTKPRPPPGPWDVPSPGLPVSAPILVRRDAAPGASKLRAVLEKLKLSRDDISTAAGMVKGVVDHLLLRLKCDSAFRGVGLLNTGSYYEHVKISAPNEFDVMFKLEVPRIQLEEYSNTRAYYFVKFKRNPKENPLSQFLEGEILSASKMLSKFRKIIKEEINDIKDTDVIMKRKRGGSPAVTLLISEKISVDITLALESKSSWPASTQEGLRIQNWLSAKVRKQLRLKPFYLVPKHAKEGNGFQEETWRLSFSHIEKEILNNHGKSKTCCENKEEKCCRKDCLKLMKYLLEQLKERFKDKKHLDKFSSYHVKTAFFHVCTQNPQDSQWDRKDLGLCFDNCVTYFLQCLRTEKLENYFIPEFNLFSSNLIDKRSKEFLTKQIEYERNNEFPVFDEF

For the molecule `CN1C(=O)S/C(=C\c2cc(OCc3cnc(C4CC4)nc3)c(O)cc2Br)C1=O`, the IC50 (as a rule, the midpoint of a concentration-inhibition curve) was at least 10 µM.

For the molecule `[2H]C(C)(Oc1cc(/C=C2\SC(=O)N(C)C2=O)c(Br)c(F)c1O)c1cnc(N)nc1` (stereo not given), the IC50 was at most 0.5 µM.

As to `CN1C(=O)S/C(=C\c2cc(OCc3cnc(-c4ccncc4)nc3)c(O)cc2Br)C1=O`, the IC50 is at most 0.5 µM.

`Cc1ncc(C(C)Oc2cc(/C=C3\SC(=O)N(C)C3=O)c(Br)cc2O)cn1` (stereo not given): the IC50 was at least 10 µM.

Regarding `CN1C(=O)S/C(=C\c2cc(OCc3ccccn3)c(O)cc2Br)C1=O`, the IC50 is at least 10 µM.

In the case of `CN1C(=O)S/C(=C\c2cc(OCc3cncc(NCc4ccccn4)c3)c(O)cc2Br)C1=O`, the IC50 is at least 10 µM.

For `CC(C)Nc1ncc(COc2cc(/C=C3\SC(=O)N(C)C3=O)c(Br)cc2O)cn1`, the IC50 was at least 10 µM.

Consider `COc1cc(/C=C2\Sc3ncc(F)cc3C2=O)c(Br)cc1O`, for which the IC50 was at most 0.5 µM.

With `COc1cc(/C=C2\SC(=O)N(C)C2=O)c(Br)cc1NS(C)(=O)=O`, the IC50 is at least 10 µM.

On to `CN1C(=O)S/C(=C\c2cc(OCc3cnc(-n4ccnc4)nc3)c(O)cc2Br)C1=O`, for which the IC50 was in the range of 0.5 to 10 µM.

As to `COc1cc(/C=C2\Sc3ncccc3C2=O)c(Br)c(Cl)c1O`, the IC50 is at most 0.5 µM.

As for `CN1CCC(c2ncc(COc3cc(/C=C4\SC(=O)N(C)C4=O)c(Br)cc3O)cn2)CC1`, the half-maximal inhibitory concentration (IC50) is at least 10 µM.

`C/C(=C1/SC(=O)NC1=O)c1ccncc1`: the IC50 was at most 0.5 µM.

As for `CN1C(=O)S/C(=C\c2cc(Oc3ccncc3)c(O)cc2Br)C1=O`, the IC50 is at least 10 µM.

Turning to `CN1C(=O)S/C(=C\c2cc(OCc3cnc(Nc4cccnc4)nc3)c(O)cc2Br)C1=O`, the IC50 lay in the range of 0.5 to 10 µM.

`COc1cc(/C=c2\sc3nc(C)cn3c2=O)c(Br)cc1O`: the IC50 was at least 10 µM.

As to `CN1C(=O)S/C(=C\c2cc(OCc3cnc(C4CCNCC4)nc3)c(O)cc2Br)C1=O`, the IC50 is 0.5 to 10 µM.

Turning to `CN1C(=O)S/C(=C\c2cc(OCc3cnc(NCc4ccccc4)nc3)c(O)cc2Br)C1=O`, the IC50 was at least 10 µM.

As to `CN1C(=O)S/C(=C\c2cc(C(F)(F)F)c(O)cc2Br)C1=O`, the concentration for half-maximal inhibition (IC50) was at most 0.5 µM.

Turning to `CN1C(=O)S/C(=C\c2cc(OCc3cnc(NC(=O)c4ccncc4)nc3)c(O)c(F)c2Br)C1=O`, the IC50 is at most 0.5 µM.

Regarding `CN1C(=O)S/C(=C\c2cc3cc[nH]c3cc2Br)C1=O`, the IC50 is 0.5 to 10 µM.

Consider `COc1cc(/C=C2\SC(=O)N(C)C2=O)c(Br)cc1OCc1ccncc1`, for which the IC50 is at least 10 µM.

For `CN1C(=O)S/C(=C\c2cc(OCc3cnc(N4CCCCC4)nc3)c(O)cc2Br)C1=O`, the IC50 was at least 10 µM.

Regarding `CN1C(=O)S/C(=C\c2cc(OCc3ccc(NC(=O)c4ccncc4)nc3)c(O)cc2Br)C1=O`, the IC50 was at most 0.5 µM.

Consider `CN1C(=O)S/C(=C\c2cc(Oc3ccccc3)c(O)cc2Br)C1=O`, for which the IC50 is at least 10 µM.

For the molecule `CN1C(=O)S/C(=C\c2cc(OCc3cc[nH]c(=O)c3)c(O)cc2Br)C1=O`, the IC50 lay within 0.5 to 10 µM.

Regarding `CC(=O)Nc1nc(S(=O)(=O)Nc2cc(Br)c(/C=C3\SC(=O)N(C)C3=O)cc2OCc2ccccc2)cs1`, the IC50 was 0.5 to 10 µM.

For the molecule `COc1cc(/C=C2\SC(=O)N(C)C2=O)c(F)cc1O`, the IC50 was at least 10 µM.

Turning to `Nc1ncc(COc2cc(/C=C3\Sc4ncccc4C3=O)c(Br)cc2O)c(C(F)(F)F)n1`, the IC50 was at most 0.5 µM.

On to `CN1C(=O)S/C(=C\c2cc(OCc3cnc(-n4cccn4)nc3)c(O)cc2Br)C1=O`, for which the IC50 lay within 0.5 to 10 µM.

For the molecule `O=C1NC(=O)/C(=C/c2cncnc2)S1`, the IC50 is at least 10 µM.

Regarding `Cc1nc(N)ncc1C(C)Oc1cc(/C=C2\SC(=O)N(C)C2=O)c(Br)cc1O` (stereo not given), the IC50 was at least 10 µM.

Turning to `CN1C(=O)S/C(=C\c2cc3nn[nH]c3cc2Br)C1=O`, the IC50 was at least 10 µM.

`CC(Oc1cc(/C=C2\Sc3ncccc3C2=O)c(Br)cc1O)c1cccnc1` (stereo not given): the IC50 was 0.5 to 10 µM.

`COc1nc(SC)ncc1COc1cc(/C=C2\SC(=O)N(C)C2=O)c(Br)cc1O`: the IC50 was at least 10 µM.

For the molecule `CN1C(=O)S/C(=C\c2cc(OCc3cnc(Nc4ccccc4)nc3)c(O)cc2Br)C1=O`, the IC50 is at least 10 µM.

Consider `CN1C(=O)S/C(=C\c2cc(OCc3cn(-c4ccccc4)nn3)c(O)cc2Br)C1=O`, for which the IC50 was at least 10 µM.

`CC(C)CNc1ncc(COc2cc(/C=C3\SC(=O)N(C)C3=O)c(Br)cc2O)cn1`: the 50% inhibitory concentration (IC50) was at least 10 µM.

Take `Cc1nc2c(Oc3cc(/C=C4\SC(=O)N(C)C4=O)c(Br)cc3O)cccc2o1`: the IC50 was 0.5 to 10 µM.

On to `CC(C)CNc1cncc(COc2cc(/C=C3\SC(=O)N(C)C3=O)c(Br)cc2O)c1`, for which the IC50 was at least 10 µM.

Regarding `COc1cc(/C=C2\Sc3cnccc3C2=O)c(Br)cc1O`, the IC50 is at most 0.5 µM.

As for `O=C1NC(=O)/C(=C/c2cccnc2)S1`, the IC50 was at least 10 µM.

Take `CN1C(=O)S/C(=C\c2cc3oc(=O)[nH]c3cc2Br)C1=O`: the IC50 is at least 10 µM.

Regarding `CN1C(=O)S/C(=C\c2cc(OCc3cncc(N)c3)c(O)cc2Br)C1=O`, the IC50 was at least 10 µM.

As to `CSc1ncc(COc2cc(/C=C3\SC(=O)N(C)C3=O)c(Br)cc2O)c(Cl)n1`, the IC50 was at least 10 µM.

Take `COc1cc(/C=C2\Sc3nccnc3C2=O)c(Br)cc1O`: the IC50 is at least 10 µM.

On to `CN1C(=O)S/C(=C\c2cc(OC(F)(F)F)c(Oc3cnc(N)s3)cc2Br)C1=O`, for which the IC50 is at least 10 µM.

With `CN1C(=O)S/C(=C\c2cc(OCc3ccnc(N)c3)c(O)cc2Br)C1=O`, the IC50 is 0.5 to 10 µM.

On to `CN1C(=O)S/C(=C\c2cc(OCc3cnc(N(C)C)nc3)c(O)cc2Br)C1=O`, for which the IC50 was at least 10 µM.

Take `CN1C(=O)S/C(=C\c2cc(OCc3ccc4cccnc4c3)c(O)cc2Br)C1=O`: the IC50 is at least 10 µM.

On to `CC(Oc1cc(/C=C2\Sc3ncccc3C2=O)c(Br)cc1O)c1cnc(Cl)nc1` (stereo not given), for which the IC50 was at most 0.5 µM.

For `CN1C(=O)S/C(=C\c2cc(OCC3CCN(C(=O)c4ccccn4)CC3)c(O)cc2Br)C1=O`, the IC50 is at least 10 µM.

With `CN1C(=O)S/C(=C\c2cc(OCC3(c4cnc(N)nc4)CC3)c(O)c(F)c2Br)C1=O`, the IC50 was in the range of 0.5 to 10 µM.

`CSc1ccc(CCc2cc(/C=C3\SC(=O)N(C)C3=O)c(Br)cc2O)cc1`: the IC50 fell in the range of 0.5 to 10 µM.

Take `Cc1nc(N)nc(C)c1COc1cc(/C=C2\SC(=O)N(C)C2=O)c(Br)cc1O`: the IC50 was at least 10 µM.

`CN1C(=O)S/C(=C\c2cc3c(Cc4cnc(N)nc4)c[nH]c3cc2Br)C1=O`: the IC50 is at least 10 µM.

Consider `CC(Oc1cc(CC2Sc3ncccc3C2=O)c(Br)c(F)c1O)c1cnc(Cl)nc1` (stereo not given), for which the half-inhibitory concentration (IC50) was at least 10 µM.

For `CN1C(=O)S/C(=C\c2cc(OCc3cccc4cnccc34)c(O)cc2Br)C1=O`, the IC50 was at least 10 µM.

`CN1C(=O)S/C(=C\c2cc(OCc3ccn(-c4ccccc4)c(=O)c3)c(O)cc2Br)C1=O`: the IC50 is at least 10 µM.

In the case of `CN1C(=O)S/C(=C\c2cc(OCc3cnc(-c4ccccn4)nc3)c(O)cc2Br)C1=O`, the IC50 fell in the range of 0.5 to 10 µM.

Take `CN1C(=O)S/C(=C\c2cc(Oc3cccc4cnccc34)c(O)cc2Br)C1=O`: the IC50 is at least 10 µM.

Consider `CSc1ncncc1C(=O)C(C)Oc1cc(/C=C2\SC(=O)N(C)C2=O)c(Br)c(F)c1O` (stereo not given), for which the IC50 is at least 10 µM.

`CN1C(=O)S/C(=C\c2cc(OCc3cnc(-c4cccnc4)nc3)c(O)cc2Br)C1=O`: the IC50 is at least 10 µM.

In the case of `CN1C(=O)S/C(=C\c2cc(Oc3cccc(O)c3N)c(O)cc2Br)C1=O`, the IC50 is at least 10 µM.

Consider `COc1cc(/C=c2\sc3n(c2=O)CCN=3)c(Cl)cc1O`, for which the IC50 is at least 10 µM.

As for `CNc1ncc(C(C)Oc2cc(/C=C3\SC(=O)N(C)C3=O)c(Br)c(F)c2O)cn1` (stereo not given), the IC50 was at least 10 µM.

Take `CN1C(=O)S/C(=C\c2cc(Oc3cccc4ncccc34)c(O)cc2Br)C1=O`: the IC50 is at least 10 µM.

Regarding `COc1cc(/C=C/C=C2\SC(=O)N(C)C2=O)c(Br)cc1O`, the IC50 is at least 10 µM.

On to `CC(Oc1cc(/C=C2\SC(=O)N(C)C2=O)c(Br)c(F)c1Oc1cnc(N)s1)c1cnc(N)nc1` (stereo not given), for which the IC50 was in the range of 0.5 to 10 µM.

In the case of `CCC(Oc1cc(/C=C2\SC(=O)N(C)C2=O)c(Br)c(F)c1O)c1cnc(Cl)nc1` (stereo not given), the IC50 lay within 0.5 to 10 µM.

As for `CNc1ncc(C(C)Oc2cc(/C=C3\SC(=O)N(C)C3=O)c(Br)cc2O)cn1` (stereo not given), the IC50 was at least 10 µM.

For `COc1cc(/C=C2\SC(=O)N(C)C2=O)c(Br)c(Cl)c1O`, the IC50 was at least 10 µM.

As to `CN1C(=O)S/C(=C\c2cc(OCc3ccc(=O)[nH]c3)c(O)cc2Br)C1=O`, the IC50 was 0.5 to 10 µM.

On to `CN1C(=O)S/C(=C\c2cc(C(C)(F)F)c(O)cc2Br)C1=O`, for which the IC50 was at least 10 µM.

As to `CN1C(=O)S/C(=C\c2cc(O)c(O)cc2F)C1=O`, the IC50 is at least 10 µM.

Turning to `COc1ncc(COc2cc(/C=C3\SC(=O)N(C)C3=O)c(Br)cc2O)cn1`, the IC50 was in the range of 0.5 to 10 µM.

As to `CN1C(=O)S/C(=C\c2cc(OCC(=O)Nc3nncs3)c(O)c(F)c2Br)C1=O`, the IC50 was 0.5 to 10 µM.

Regarding `Cc1nc([S+](C)[O-])nc(C)c1COc1cc(/C=C2\SC(=O)N(C)C2=O)c(Br)cc1O` (stereo not given), the IC50 is at least 10 µM.

As for `O=C1NC(=O)/C(=C/c2cnccn2)S1`, the IC50 was at least 10 µM.

On to `COc1cc(/C=C2\SC(=O)N(C)C2=O)c(Br)cc1NS(=O)(=O)C(F)(F)F`, for which the half-inhibitory concentration (IC50) was in the range of 0.5 to 10 µM.

With `CN1C(=O)S/C(=C\c2cc(OCc3cnc(-c4ccccc4)nc3)c(O)cc2Br)C1=O`, the IC50 is at least 10 µM.

Consider `COc1nc(S(C)(=O)=O)ncc1COc1cc(/C=C2\SC(=O)N(C)C2=O)c(Br)cc1O`, for which the IC50 was at least 10 µM.

Consider `CSc1nc([S+](C)[O-])ncc1COc1cc(/C=C2\Sc3ncccc3C2=O)c(Br)c(F)c1O` (stereo not given), for which the IC50 was at most 0.5 µM.

For `C#Cc1cc(O)c(OC)cc1/C=C1\SC(=O)N(C)C1=O`, the 50% inhibitory concentration (IC50) was at least 10 µM.

Turning to `CN1CCC(COc2cc(/C=C3\SC(=O)N(C)C3=O)c(Br)cc2O)CC1`, the IC50 is at least 10 µM.

In the case of `CC(Oc1cc(/C=C2\SC(=O)N(C)C2=O)c(Br)c(F)c1O)c1cncnc1` (stereo not given), the IC50 is at least 10 µM.

As to `CN1C(=O)S/C(=C\c2cc(CCc3ccc([S+](C)[O-])cc3)c(O)cc2Br)C1=O` (stereo not given), the IC50 was at least 10 µM.

In the case of `CN1C(=O)S/C(=C\c2cc(OCc3cnc(S)nc3)c(O)cc2Br)C1=O`, the IC50 is at least 10 µM.

As for `CC(Cc1cnc(N)nc1)Oc1cc(/C=C2\SC(=O)N(C)C2=O)c(Br)c(F)c1O` (stereo not given), the IC50 lay in the range of 0.5 to 10 µM.

On to `COc1cc(/C=C2\Sc3ncccc3C2=O)c(I)cc1O`, for which the IC50 is at most 0.5 µM.
